Test results from patent publication US11873405B2, “High oleic oil compositions and uses thereof” (priority 2021, dated 2024).

Key:
[1] = tested on: E06 mutant (Strain K) microalgae cells; assay: Selection for tolerance to triparanol: growth in 3-day lipid production culture, 96-deep well block; type: cell-based, Prototheca wickerhamii; details: cells exposed to increasing amounts of triparanol, FIG. 7
Description: The cryo-vials were thawed and used to initiate a 10 mL pre-seed culture in bioreactor tube, which was incubated for 72 h at 28° C./200 rpm. Two rounds of selection and enrichment with increasing amounts of triparanol were conducted following the strategy outlined in FIG. 3. […] This population was collected on sterile filters, diluted, and spread on solid media. The resulting clonal isolates were screened in our automated 96-well block-based lipid production and glucose consumption assay. A number of strains with increased oleate levels were identified among the mutant clones (TABLE 5). Strains validated in repeat assays were then assessed for phenotypic stability. Stable strains were cryo-preserved.
Cells were exposed to increasing amounts of triparanol during a 3-day lipid production culture in a 96-deep well block. Significant inhibition of growth occurred at […] concentrations >2 μM. Rare surviving cells presumed to be in wells where 50% inhibition was observed were recovered by sterile filtration, washed with and collected from the filter in M20+glucose pre-seed media. The cultures were then used to initiate another round of selection. By the third round of selection (right panels), a subtle difference in the growth of the mutant population compared to the mock-mutagenized controls was observed. […]

[2] = tested on: E06 mutant (Strain K) microalgae cells; assay: Selection for tolerance to membrane stress: growth (OD750) in 3-day lipid production culture, 96-deep well block; type: cell-based, Prototheca wickerhamii; details: fixed 1.6 μM triparanol plus increasing phenethyl alcohol, FIG. 6
Description: The mutant strain, Strain 0_E06 (Strain E06), while not phenotypically stable, consistently achieved higher oleate levels than the mutant lineage that gave rise to Strain 1 (TABLE 3). As such, this mutant lineage was selected for further rounds of classical strain improvement, and designated as “Strain K”. Following overnight growth in M21+40 g/L glucose seed media to mid-log phase, the E06 mutant was exposed to 270 mM ethyl methanesulfonate (EMS) in 0.1 M potassium phosphate buffer (pH 7.0) for 45 min at room temperature in dark and with periodic gentle agitation. Mutagenesis was terminated with the addition of a sodium thiosulfate solution to final concentration of 3% (w/v). In parallel, a mock-mutagenized control cell population was taken through all the same manipulations, except for exposure to EMS. Cells were collected using 0.2-micron filter sterilization units, washed extensively with water, and then washed with and into 5 mL M20+5 g/L glucose pre-seed media. Pre-seed cultures were incubated at 28° C./900 rpm/80% humidity for 72 h. An 8% (v/v) inoculum from each culture was then used to initiate a seed culture in 10 mL of standard M21+5 g/L glucose seed media in 50-mL bioreactor tubes. […] Growth was then assessed by measuring optical density at 750 nm wavelength (OD750) in a Molecular Devices Spectramax M5 plate reader. […]

OCCc1ccccc1 [phenethyl alcohol]
concentrations at which significant inhibition of growth occurred [1]: > 2 µM | concentrations at which significant inhibition of growth occurred [2]: > 3.6 mM
